Patent US20250243245A1 (priority 2022, published 2025)
Where a SMILES comes first, the peptide text is derived from it.

Tested on: E. coli strain BL21
Details: BL21, 24 h

CC[C@H](C)[C@H](NC(=O)[C@H](CCCNC(=N)N)NC(=O)[C@H](CCCNC(=N)N)NC(=O)[C@H](CCC(N)=O)NC(=O)[C@H](Cc1c[nH]c2ccccc12)NC(=O)[C@H](Cc1ccccc1)NC(=O)CNC(=O)[C@@H]1CCCN1C(=O)[C@H](CO)NC(=O)CNC(=O)[C@H](Cc1ccc(O)cc1)NC(=O)[C@@H](NC(=O)[C@H](CO)NC(=O)CNC(=O)[C@H](Cc1ccc(O)cc1)NC(=O)[C@H](CO)NC(=O)CNC(=O)[C@H](CCCNC(=N)N)NC(=O)[C@H](Cc1c[nH]c2ccccc12)NC(=O)[C@H](Cc1c[nH]c2ccccc12)NC(=O)[C@H](CCCNC(=N)N)NC(=O)[C@H](Cc1c[nH]c2ccccc12)NC(=O)[C@H](Cc1c[nH]c2ccccc12)NC(=O)[C@H](CCCNC(=N)N)NC(=O)[C@@H](N)CCCNC(=N)N)C(C)C)C(=O)N[C@@H](CCCNC(=N)N)C(=O)N[C@@H](CCCNC(=N)N)C(=O)N[C@@H](Cc1c[nH]c2ccccc12)C(=O)N[C@@H](CCCNC(=N)N)C(=O)N[C@@H](CCCNC(=N)N)C(=O)O [UGI-7] (H-RRWWRWWRGSYGSVYGSPGFWQRRIRRWRR-OH; N-terminus and C-terminus assumed)
MIC: 5 to 10 mM

CC[C@H](C)[C@H](NC(=O)[C@H](CCCNC(=N)N)NC(=O)[C@H](CCCNC(=N)N)NC(=O)[C@H](CCC(N)=O)NC(=O)[C@H](Cc1c[nH]c2ccccc12)NC(=O)[C@@H](N)Cc1ccccc1)C(=O)N[C@@H](CCCNC(=N)N)C(=O)N[C@@H](CCCNC(=N)N)C(=O)N[C@@H](Cc1c[nH]c2ccccc12)C(=O)N[C@@H](CCCNC(=N)N)C(=O)N[C@@H](CCCNC(=N)N)C(=O)NCC(=O)N[C@@H](CO)C(=O)NCC(=O)N[C@@H](Cc1ccc(O)cc1)C(=O)NCC(=O)N[C@@H](CO)C(=O)N1CCC[C@H]1C(=O)NCC(=O)N[C@@H](CCCNC(=N)N)C(=O)N[C@@H](CCCNC(=N)N)C(=O)N[C@@H](Cc1c[nH]c2ccccc12)C(=O)N[C@@H](Cc1c[nH]c2ccccc12)C(=O)N[C@@H](CCCNC(=N)N)C(=O)N[C@@H](Cc1c[nH]c2ccccc12)C(=O)N[C@@H](Cc1c[nH]c2ccccc12)C(=O)N[C@@H](CCCNC(=N)N)C(=O)O [Peptide 27P-2] (H-FWQRRIRRWRRGSGYGSPGRRWWRWWR-OH; N-terminus and C-terminus assumed)
MIC: 5 to 10 mM

CC[C@H](C)[C@H](NC(=O)[C@H](CCCCN)NC(=O)[C@H](CC(C)C)NC(=O)[C@@H](NC(=O)[C@H](CCCCN)NC(=O)[C@H](CCCCN)NC(=O)[C@@H](NC(=O)[C@H](CC(C)C)NC(=O)[C@H](CCCCN)NC(=O)[C@@H](N)CCCCN)[C@@H](C)CC)[C@@H](C)CC)C(=O)N[C@@H](CC(C)C)C(=O)NCC(=O)N[C@@H](CO)C(=O)NCC(=O)N[C@@H](Cc1ccc(O)cc1)C(=O)NCC(=O)N[C@@H](CO)C(=O)N1CCC[C@H]1C(=O)NCC(=O)N[C@@H](Cc1ccccc1)C(=O)N[C@@H](Cc1c[nH]c2ccccc12)C(=O)N[C@@H](CCC(N)=O)C(=O)N[C@@H](CCCNC(=N)N)C(=O)N[C@@H](CCCNC(=N)N)C(=O)N[C@H](C(=O)N[C@@H](CCCNC(=N)N)C(=O)N[C@@H](CCCNC(=N)N)C(=O)N[C@@H](Cc1c[nH]c2ccccc12)C(=O)N[C@@H](CCCNC(=N)N)C(=O)N[C@@H](CCCNC(=N)N)C(=O)O)[C@@H](C)CC [Peptide 30P-1]
MIC: 1.25 to 2.5 mM

CC(C)C[C@H](NC(=O)[C@H](CO)NC(=O)[C@H](CCCCN)NC(=O)[C@H](CC(C)C)NC(=O)[C@H](CCCCN)NC(=O)[C@H](CCC(=O)O)NC(=O)[C@H](CC(C)C)NC(=O)[C@H](CC(C)C)NC(=O)[C@H](CCC(=O)O)NC(=O)[C@H](CCC(=O)O)NC(=O)[C@H](CC(C)C)NC(=O)[C@H](CCCNC(=N)N)NC(=O)[C@H](CCCCN)NC(=O)[C@@H]1CCCN1C(=O)[C@@H](N)CCC(N)=O)C(=O)N[C@@H](CCC(=O)O)C(=O)NCC(=O)N[C@@H](CO)C(=O)N[C@@H](CCCCN)C(=O)N[C@@H](C)C(=O)N[C@@H](Cc1c[nH]cn1)C(=O)N[C@@H](CCC(=O)O)C(=O)N[C@@H](CCCCN)C(=O)N[C@@H](CC(C)C)C(=O)N[C@@H](Cc1c[nH]cn1)C(=O)N[C@@H](CC(=O)O)C(=O)N[C@@H](Cc1c[nH]c2ccccc12)C(=O)N[C@H](C(=O)N[C@@H](CCCNC(=N)N)C(=O)N[C@@H](CCCCN)C(=O)O)[C@@H](C)O [UGK-49] (H-QPKRLEELLEKLKSLEGSKAHEKLHDWTRK-OH; N-terminus and C-terminus assumed)
MIC: >20 mM

CSCC[C@H](NC(=O)[C@H](Cc1c[nH]c2ccccc12)NC(=O)[C@H](CCC(=O)O)NC(=O)[C@H](Cc1c[nH]c2ccccc12)NC(=O)[C@H](Cc1c[nH]c2ccccc12)NC(=O)[C@H](CCCNC(=N)N)NC(=O)[C@H](CCCNC(=N)N)NC(=O)[C@H](CCC(=O)O)NC(=O)[C@H](CC(C)C)NC(=O)[C@@H]1CCCN1C(=O)[C@H](CO)NC(=O)[C@H](CC(=O)O)NC(=O)[C@H](CC(C)C)NC(=O)[C@H](CC(C)C)NC(=O)[C@H](CCCNC(=N)N)NC(=O)[C@H](CCCNC(=N)N)NC(=O)[C@@H](NC(=O)[C@H](CC(C)C)NC(=O)[C@H](CCC(=O)O)NC(=O)[C@H](CCC(N)=O)NC(=O)[C@H](CC(C)C)NC(=O)[C@H](CCC(N)=O)NC(=O)[C@H](CCC(=O)O)NC(=O)[C@H](CO)NC(=O)CNC(=O)[C@H](CCCNC(=N)N)NC(=O)[C@@H]1CCCN1C(=O)[C@@H](N)CCCCN)[C@@H](C)O)C(=O)N[C@@H](CCCNC(=N)N)C(=O)N[C@@H](CCCNC(=N)N)C(=O)O [UGK-29] (H-KPRGSEQLQELTRRLLDSPLERRWWEWMRR-OH; N-terminus and C-terminus assumed)
MIC: >20 mM

N=C(N)NCCC[C@H](NC(=O)[C@H](Cc1c[nH]c2ccccc12)NC(=O)[C@H](Cc1c[nH]c2ccccc12)NC(=O)[C@H](CCCNC(=N)N)NC(=O)[C@H](Cc1c[nH]c2ccccc12)NC(=O)[C@H](Cc1c[nH]c2ccccc12)NC(=O)[C@H](CCCNC(=N)N)NC(=O)[C@@H](N)CCCNC(=N)N)C(=O)O [Peptide 8P-1, reference compound] (H-RRWWRWWR-OH; N-terminus and C-terminus assumed)
MIC: >20 mM

CC[C@H](C)[C@H](N)C(=O)N[C@@H](CCC(=O)O)C(=O)N[C@@H](CCCNC(=N)N)C(=O)N[C@@H](CO)C(=O)N[C@H](C(=O)N[C@@H](CC(N)=O)C(=O)N[C@@H](CC(C)C)C(=O)N[C@@H](CC(=O)O)C(=O)N[C@@H](Cc1c[nH]c2ccccc12)C(=O)N[C@@H](Cc1ccc(O)cc1)C(=O)N[C@@H](CCCCN)C(=O)NCC(=O)N1CCC[C@H]1C(=O)N[C@H](C(=O)N[C@@H](CC(C)C)C(=O)N[C@@H](CC(C)C)C(=O)O)[C@@H](C)O)[C@@H](C)O [Peptide 16P-1, reference compound] (H-IERSTNLDWYKGPTLL-OH; N-terminus and C-terminus assumed)
MIC: >20 mM

CC[C@H](C)[C@H](NC(=O)[C@H](CC(N)=O)NC(=O)[C@H](CCCNC(=N)N)NC(=O)[C@H](CCC(N)=O)NC(=O)[C@H](Cc1c[nH]c2ccccc12)NC(=O)[C@H](CCC(N)=O)NC(=O)[C@@H](N)Cc1ccccc1)C(=O)N[C@@H](CCCNC(=N)N)C(=O)N[C@@H](CCCCN)C(=O)N[C@H](C(=O)N[C@@H](CCCNC(=N)N)C(=O)O)C(C)C [Peptide 11P-2, FQWORNIRKVR, reference compound] (H-FQWQRNIRKVR-OH)
MIC: >20 mM

CC[C@H](C)[C@H](NC(=O)[C@H](CCCCN)NC(=O)[C@H](CC(C)C)NC(=O)[C@@H](NC(=O)[C@H](CCCCN)NC(=O)[C@H](CCCNC(=N)N)NC(=O)[C@H](C)NC(=O)[C@@H]1CCCN1C(=O)[C@H](CCCCN)NC(=O)[C@@H](N)CCCNC(=N)N)C(C)C)C(=O)N[C@@H](CC(C)C)C(=O)NCC(=O)N[C@@H](CCCNC(=N)N)C(=O)NCC(=O)N[C@@H](CO)C(=O)N[C@@H](CCC(=O)O)C(=O)N[C@@H](Cc1ccccc1)C(=O)N[C@@H](Cc1c[nH]c2ccccc12)C(=O)N[C@@H](CCC(N)=O)C(=O)N[C@@H](CCCCN)C(=O)N[C@@H](CCCNC(=N)N)C(=O)N[C@H](C(=O)N[C@@H](CCCNC(=N)N)C(=O)N[C@@H](CCCNC(=N)N)C(=O)N[C@@H](Cc1c[nH]c2ccccc12)C(=O)N[C@@H](CCCNC(=N)N)C(=O)N[C@@H](CCCNC(=N)N)C(=O)O)C(C)C [Peptide 27P-3] (H-RKPARKVLKILGRGSEFWQKRVRRWRR-OH; N-terminus and C-terminus assumed)
MIC: 10 to 20 mM

CC(C)C[C@H](NC(=O)[C@H](CCCNC(=N)N)NC(=O)[C@H](CCCNC(=N)N)NC(=O)[C@H](CCC(N)=O)NC(=O)[C@H](Cc1c[nH]c2ccccc12)NC(=O)[C@H](CCC(N)=O)NC(=O)[C@H](Cc1ccccc1)NC(=O)[C@H](C)NC(=O)[C@H](CCC(=O)O)NC(=O)[C@@H]1CCCN1C(=O)[C@H](CC(C)C)NC(=O)[C@@H](N)CCCNC(=N)N)C(=O)N[C@@H](CCCNC(=N)N)C(=O)N[C@@H](CCCNC(=N)N)C(=O)N[C@@H](Cc1c[nH]c2ccccc12)C(=O)N[C@@H](CCCNC(=N)N)C(=O)N[C@@H](CCCNC(=N)N)C(=O)N1CCC[C@H]1C(=O)N[C@@H](CC(=O)O)C(=O)N[C@@H](CO)C(=O)N1CCC[C@H]1C(=O)NCC(=O)N[C@@H](CCCNC(=N)N)C(=O)N[C@@H](CCCNC(=N)N)C(=O)N[C@@H](Cc1c[nH]c2ccccc12)C(=O)N[C@@H](Cc1c[nH]c2ccccc12)C(=O)N[C@@H](CCCNC(=N)N)C(=O)N[C@@H](Cc1c[nH]c2ccccc12)C(=O)N[C@@H](Cc1c[nH]c2ccccc12)C(=O)N[C@@H](CCCNC(=N)N)C(=O)O [UGK-5] (H-RLPEAFQWQRRLRRWRRPDSPGRRWWRWWR-OH; N-terminus and C-terminus assumed)
MIC: 5 to 10 mM

CC(C)C[C@H](NC(=O)[C@H](CO)NC(=O)[C@H](CCCCN)NC(=O)[C@H](CC(C)C)NC(=O)[C@H](CCCCN)NC(=O)[C@H](CCC(N)=O)NC(=O)[C@H](CC(C)C)NC(=O)[C@H](CC(C)C)NC(=O)[C@H](CCC(=O)O)NC(=O)[C@H](CCC(=O)O)NC(=O)[C@H](CC(C)C)NC(=O)[C@H](CCCNC(=N)N)NC(=O)[C@H](CCCCN)NC(=O)[C@@H]1CCCN1C(=O)[C@@H](N)CC(C)C)C(=O)N[C@@H](CCC(=O)O)C(=O)NCC(=O)N[C@@H](CO)C(=O)N[C@@H](CCCCN)C(=O)N[C@@H](C)C(=O)N[C@@H](Cc1c[nH]cn1)C(=O)N[C@@H](CCC(=O)O)C(=O)N[C@@H](CCCCN)C(=O)N[C@@H](CC(C)C)C(=O)N[C@@H](Cc1c[nH]cn1)C(=O)N[C@@H](CC(=O)O)C(=O)N[C@@H](Cc1c[nH]c2ccccc12)C(=O)N[C@H](C(=O)N[C@@H](CCCNC(=N)N)C(=O)N[C@@H](CCCCN)C(=O)O)[C@@H](C)O [UGK-45] (H-LPKRLEELLQKLKSLEGSKAHEKLHDWTRK-OH; N-terminus and C-terminus assumed)
MIC: >20 mM
